Assay results published in EP0358766A1, “METHOD OF STERILIZING PLANT ANTHERS” (VSESOJUZNY NAUCHNO-ISSLEDOVATELSKY INST. SELSKOKHOZYAISTV. …, priority 1988, dated 1989).
Where two headings read alike, the source gives them in different places.

Tests used:
[1] = system: Winterweizens Sorte Mironowskaya 808; experiment: Field test of gametocidal activity (anther sterilisation), winter wheat Mironowskaya 808; format: in vivo, Weizen; details: for Prozentsatz des Ansetzens von Samen bei freier Bestäubung: control = 100; for pest or weed control at 1 %, 10000 g/ha: read-out: Prozentsatz der Sterilität %
Excerpt: (§1) Die gametozide Aktivität der erfindungsgemäßen Sterilisationsmittel war in Feldversuchen in verschiedenen bodenklimatischen Zonen mit Teilstücken von 10 m^2 Größe in dreibis viermaliger Wiederholung festgestellt. Jedes Sterilisationsmittel wurde mindenstens 5 Jahre lang geprüft.
(§2) Die Entwicklung der Perioden der Organogenese wird zytologisch überwacht. Die Behandlung von Pflanzen mit dem Sterilisationsmittel erfolgt am Anfang der fünften Periode der Organogenese nach Kupermann.
(§3) Mit dem Ährenschieben verwirklicht man die Isolierung von Hauptähren und anderen Stockwerken in Pergametbeuteln. Bei Weizen und Tritikale werden Einzelisolatoren benutzt. Bei Roggen schließt man je 1 Ähre von […] verschiedenen nebeneinander befindlichen Pflanzen unter einen gemeinsamen Isolator ein. Bei Hirse wird jede Rispe getrennt isoliert. Der Sterilitätsprozentsatz (X) für Weizen, Roggen, Tritikale und Hirse wird nach der Formel [formula] ermittelt.
(§4) Die Kornzahl in nicht isolierten Ähren von Kontrollpflanzen wird bedingt für 100 % Ansetzen bei freier Bestäubung angenommen.
(§5) Um zuverlässige Angaben zu erhalten, verwendet man 20 bis 25 Isolatoren je Wiederholung für Weizen und Tritikale, 10 bis 15 Isolatoren jeder Wiederholung für Roggen und Hirse.
Pflanzen des Winterweizens Sorte Mironowskaya 808 werden in der V.Periode der Organogenese durch Zerstäubung der 2%igen wäßrigen Emulsion von 1,1,3-Tribrompropan mit Hilfe einer Rückenspritze behandelt.
Als Emulgierungsmittel setzt man 0,5 Masse% C12-C14--Kalziumalkylbenzolsulphonat zu. Als Adjuvans enthält die Emulsion 0,01 Masse% Dimethylsulfoxid. Der Verbrauch an Präparat beträgt 20 kg/ha bei 1000 Liter Wasserdurchsatz. Als Kontrolle dienen Pflanzen, behandelt mit einem Verdünner ohne Sterilisationsmittel. Die Ergebnisse sind in der Tabelle 1 angegeben.
Der ProzeB wird analog zu dem in Beispiel 1 beschriebenen durchgeführt. Als Sterilisationsmittel verwendet man eine 2%ige waßrige Emulsion von 1,1,3-Tribrom-4-chlorbutan, 1,1,2,3-Tetrabrompropan. Die Prüfergebnisse sind in der Tabelle 1 angegeben.
Der Prozeß wird analog zu dem in Beispiel 1 beschriebenen durchgeführt, nur daß man 1%ige wäßrige Emulsion von 1,2,3-Tribrompropan, 1,2-Dibrompropan, 1,1,3-Tribrom-3--chlorpropan, 1,2-Dibrom-3-chlorpropan, 1,3-Dibrompropan, 1,1,1,3-Tetrabromheptan, 1,1,3-Tribromheptan, 1,2-Dibromheptan verwendet. Die Präparatdosis beträgt 10 kg ha. Die Prüfergebnisse sind in der Tabelle 1 angegeben. Die gleichen Ergebnisse sind bei der Behandlung des Weizens Sorte Mironowskaya 808 in der VI. Periode der Organogenese erhalten.

diploidem Roggen Chulpan = experiment: Field test of gametocidal activity, diploid rye Chulpan; format: in vivo; details: for Kornzahl der Ähre bei freier Bestäubung / Kornzahl der Ähre im Isolator / Prozentsatz des Ansetzens von Samen bei freier Bestäubung / percent sterility at 10000 g/ha: Chulpan, period V, 1% aqueous emulsion, 10 kg/ha; for Prozentsatz des Ansetzens von Samen bei freier Bestäubung: control = 100; for percent sterility at 10000 g/ha / pest or weed control at 10000 g/ha: read-out: Prozentsatz der Sterilität
Excerpt: as §1, §2, §3, §4, §5
Pflanzen von diploidem Roggen Chulpan werden in der V.Periode der Organogenese mit einer 1%igen wäßrigen Emulsion von 1,1,3-Tribrompropan, 1,1,3-Tribrom-4-chlorbutan, 1,1,2,3-Tetrabrompropan, 1,2,3-Tribrompropan, 1,2-Dibrompropan, 1,1,3-Tribrom-3-ohlorpropan, 1,2-Dibrom-3--chlorpropan, 1,3-Dibrompropan, 1,1,1,3-Tetrabromheptan, 1,1,3-Tribromheptan bzw. 1,2-Dibromheptan behandelt. Die Emulsion enthält 0,5 Masse% C12-C14-Kalziumalkylbenzolsul- fonat und 0,01 Masse% Dimethylsulfoxid. Der Verbrauch an Präparat beträgt 10 kg/ha. Die Prüfergebnisse sind in der Tabelle 11 angegeben. Die gleichen Ergebnisse sind bei der Behandlung von diploidem Roggen Chulpan in der VI. Periode der Organogenese erhalten.

[2] = system: diploidem Roggen Kharkovskaya 55; experiment: Field test of gametocidal activity, diploid rye Kharkovskaya 55; format: in vivo; details: for Kornzahl der Ähre bei freier Bestäubung / Kornzahl der Ähre im Isolator / Prozentsatz des Ansetzens von Samen bei freier Bestäubung / percent sterility at 6000 g/ha: Kharkovskaya 55, period V, 1% aqueous emulsion, 6 kg/ha in 600 l water; for Prozentsatz des Ansetzens von Samen bei freier Bestäubung: control = 100; for percent sterility at 6000 g/ha / pest or weed control at 6000 g/ha: read-out: Prozentsatz der Sterilität
Excerpt: as §1, §2, §3, §4, §5
Pflanzen von diploidem Roggen Kharkovskaya 55 werden in der V. Periode der Organogenese mit einer l%igen wäßrigen Emulsion von 1,1,3-Tribrompropan, 1,2,3-Tribrompropan, 1,2-Dibrompropan, 1,1,3-Tribrom-3-chlorpropan, 1,2--Dibrom-3-chlorpropan, 1,1,1,3-Tetrabromheptan, 1,1,3-Tribromheptan bzw. 1,2-Dibromheptan behandelt. Die Emulsion enthält 0,5 Masse% C12-C14-Kalziumalkylbenzolsulfonat und 0,01 Masse% Dimethylformamid als Adjuvans. Der Verbrauch an Präparat beträgt 6 kg/ha bei 600 1 Wasserdurchsatz. Die Prüfergebnisse sind in der Tabelle 13 angegeben. Die gleichen Ergebnisse sind bei der Behandlung von diploidem Roggen Kharkovskaya 55 in der VI. Periode der Organogenese erhalten.

[3] = system: Hirse Sorte Mironovskoye 94; experiment: Field test of gametocidal activity, millet Mironovskoye 94; format: in vivo; details: for Kornzahl der Rispe bei freier Bestäubung / Kornzahl der Rispe im Isolator / Prozentsatz des Ansetzens von Samen bei freier Bestäubung / percent sterility at 6000 g/ha: Mironovskoye 94, period V, 1% aqueous emulsion, 6 kg/ha in 600 l water; for Prozentsatz des Ansetzens von Samen bei freier Bestäubung: control = 100; for percent sterility at 6000 g/ha / pest or weed control at 6000 g/ha: read-out: Prozentsatz der Sterilität
Excerpt: as §1, §2, §3, §4, §5
Pflanzen der Hirse Sorte Mironovskoye 94 werden in der V.Periode der Organogenese mit einer 1%igen wäßrigen Emulsion von 1,1,3-Tribrompropan, 1,2,3-Tribrompropan, 1,2-Dibrompropan, 1,2-Dibrom-3-chlorpropan, 1,3-Dibrompropan, 1,1,1,3-Tetrabromheptan, 1,1,3-Tribromheptan, 1,2-Dibromheptan behandelt. Die Emulsion enthält 0,5 Masse% C12-C14--Kalziumalkylbenzolaulfonat und 0,01 Masse% Dimethylsulfoxid als Adjuvans. Der Verbrauch an Präparat beträgt 6 kg/ha bei 600 1 Wasserdurchsatz. Die Prüfergebnisse sind in der Tabelle 15 angegeben. Die gleichen Ergebnisse sind bei der Behandlung der Hirse Sorte Mironovskoye 94 in der VI. Periode der Organogenese erhalten.

[4] = system: Sommerweizens Sorte Moskowskaya 35; experiment: Field test of gametocidal activity, spring wheat Moskowskaya 35; format: in vivo, Weizen; details: for Prozentsatz des Ansetzens von Samen bei freier Bestäubung: control = 100
Excerpt: as §1, §2, §3, §4, §5
Pflanzen des Sommerweizens Sorte Moskowskaya 35 werden in der V. Periode der Organogenese (nach Kupermann) mit einer l%igen wäßrigen Emulsion von 1,1,3-Tribrompropan, […], 1,1,2,3-Tetrabrompropan, 1,2,3-Tribrompropan, 1,2-Dibrompropan, 1,1,3-Tribrom-3-chlorpropan, 1,2-Dibrom-3-chlorpropan, 1,3-Dibrompropan, 1,1,1,3-Tetrabromheptan bzw. 1,1,3-Tribromheptan behandelt. Die Emulsion enthält als Emulgierungsmittel 0,5 Masse% C12-C14-Kalzium- alkylbenzolsulfonat und als Adjuvans 0,01 Masse% Dimethylformamid. Der Verbrauch an Präparat beträgt 6 kg/ha bei 600 1 Wasserdurchsatz. Als Kontrolle dienen Pflanzen, behandelt mit dem Verdünner ohne Sterilisationsmittel.
Die Prüfergebnisse sind in der Tabelle 2 angegeben. Die gleichen Ergebnisse sind bei der Behandlung des Sommerweizens Sorte Moskowskaya 35 in der VI.Periode der Organogenese erhalten.

[5] = Mironowskaya 808, period V of organogenesis, 1% aqueous emulsion, 10 kg/ha
[6] = Moskowskaya 35, period V, 1% aqueous emulsion, 6 kg/ha in 600 l water
[7] = read-out: Prozentsatz der Sterilität
[8] = Mironowskaya 808, period V of organogenesis, 2% aqueous emulsion, 20 kg/ha in 1000 l water

## CCCCCC(Br)CBr (centres unmarked) [Beispiel 11, 1,2-Dibromheptan]
[1]; [5]
  Kornzahl der Ähre bei freier Bestäubung: 39,7
  Kornzahl der Ähre im Isolator: 0,0
  Prozentsatz des Ansetzens von Samen bei freier Bestäubung: 95,4%
  pest or weed control at 1 %, 10000 g/ha: 100%
Diploidem Roggen Chulpan
  Kornzahl der Ähre bei freier Bestäubung: 48,3
  Kornzahl der Ähre im Isolator: 0,0
  Prozentsatz des Ansetzens von Samen bei freier Bestäubung: 96,4%
  percent sterility at 10000 g/ha: 100%
[2]
  Kornzahl der Ähre bei freier Bestäubung: 34,0
  Kornzahl der Ähre im Isolator: 0,0
  Prozentsatz des Ansetzens von Samen bei freier Bestäubung: 91,6%
  percent sterility at 6000 g/ha: 100%
[3]
  Kornzahl der Rispe bei freier Bestäubung: 159,6
  Kornzahl der Rispe im Isolator: 0,0
  Prozentsatz des Ansetzens von Samen bei freier Bestäubung: 65,2%
  percent sterility at 6000 g/ha: 100%

## ClCC(Br)CBr (centres unmarked) [Beispiel 7, 1,2-Dibrom-3-chlorpropan]
[1]; [5]
  Kornzahl der Ähre bei freier Bestäubung: 33,8
  Kornzahl der Ähre im Isolator: 0,0
  Prozentsatz des Ansetzens von Samen bei freier Bestäubung: 90,6%
[1]
  pest or weed control at 1 %, 10000 g/ha: 100%
[4]; [6]
  Kornzahl der Ähre bei freier Bestäubung: 33,8
  Kornzahl der Ähre im Isolator: 0,0
  Prozentsatz des Ansetzens von Samen bei freier Bestäubung: 88,5%
[4]; [7]
  pest or weed control at 6000 g/ha: 100%
Diploidem Roggen Chulpan
  Kornzahl der Ähre bei freier Bestäubung: 42,5
  Kornzahl der Ähre im Isolator: 0,0
  Prozentsatz des Ansetzens von Samen bei freier Bestäubung: 84,8%
  pest or weed control at 10000 g/ha: 100%
[2]
  Kornzahl der Ähre bei freier Bestäubung: 39,5
  Kornzahl der Ähre im Isolator: 0,0
  Prozentsatz des Ansetzens von Samen bei freier Bestäubung: 87,6%
  pest or weed control at 6000 g/ha: 100%
[3]
  Kornzahl der Rispe bei freier Bestäubung: 202,6
  Kornzahl der Rispe im Isolator: 0,0
  Prozentsatz des Ansetzens von Samen bei freier Bestäubung: 82,8%
  pest or weed control at 6000 g/ha: 100%

## BrCCC(Br)Br [Beispiel 1, 1,1,3-Tribrompropan]
[1]; [8]
  Kornzahl der Ähre bei freier Bestäubung: 40,3
  Kornzahl der Ähre im Isolator: 0,9
  Prozentsatz des Ansetzens von Samen bei freier Bestäubung: 84,0%
[4]; [6]
  Kornzahl der Ähre bei freier Bestäubung: 34,2
  Kornzahl der Ähre im Isolator: 0,7
  Prozentsatz des Ansetzens von Samen bei freier Bestäubung: 89,5%
[4]; [7]
  pest or weed control at 6000 g/ha: 99.9%
Diploidem Roggen Chulpan
  Kornzahl der Ähre bei freier Bestäubung: 46,5
  Kornzahl der Ähre im Isolator: 0,2
  Prozentsatz des Ansetzens von Samen bei freier Bestäubung: 92,8%
  pest or weed control at 10000 g/ha: 99.6%
[2]
  Kornzahl der Ähre bei freier Bestäubung: 43,1
  Kornzahl der Ähre im Isolator: 1,2
  Prozentsatz des Ansetzens von Samen bei freier Bestäubung: 95,6%
  pest or weed control at 6000 g/ha: 97.2%
[3]
  Kornzahl der Rispe bei freier Bestäubung: 175,1
  Kornzahl der Rispe im Isolator: 0,0
  Prozentsatz des Ansetzens von Samen bei freier Bestäubung: 71,6%
  pest or weed control at 6000 g/ha: 100%

## CCCCC(Br)CC(Br)Br (centres unmarked) [Beispiel 10, 1,1,3-Tribromheptan]
[1]; [5]
  Kornzahl der Ähre bei freier Bestäubung: 40,0
  Kornzahl der Ähre im Isolator: 0,6
  Prozentsatz des Ansetzens von Samen bei freier Bestäubung: 96,2%
  pest or weed control at 1 %, 10000 g/ha: 98.4%
[4]; [6]
  Kornzahl der Ähre bei freier Bestäubung: 36,2
  Kornzahl der Ähre im Isolator: 0,1
  Prozentsatz des Ansetzens von Samen bei freier Bestäubung: 94,7%
[4]; Moskowskaya 35, period V, 1% aqueous emulsion, 6 kg/ha in 600 l water, read-out: Prozentsatz der Sterilität
  percent sterility at 6000 g/ha: 99.8%
Diploidem Roggen Chulpan
  Kornzahl der Ähre bei freier Bestäubung: 46,3
  Kornzahl der Ähre im Isolator: 0,3
  Prozentsatz des Ansetzens von Samen bei freier Bestäubung: 92,4%
  percent sterility at 10000 g/ha: 99.4%
[2]
  Kornzahl der Ähre bei freier Bestäubung: 36,2
  Kornzahl der Ähre im Isolator: 0,1
  Prozentsatz des Ansetzens von Samen bei freier Bestäubung: 97,8%
  percent sterility at 6000 g/ha: 99.8%
[3]
  Kornzahl der Rispe bei freier Bestäubung: 180,1
  Kornzahl der Rispe im Isolator: 0,0
  Prozentsatz des Ansetzens von Samen bei freier Bestäubung: 73,6%
  percent sterility at 6000 g/ha: 100%

## CC(Br)CBr (centres unmarked) [Beispiel 5, 1,2-Dibrompropan]
[1]; [5]
  Kornzahl der Ähre bei freier Bestäubung: 36,7
  Kornzahl der Ähre im Isolator: 0,1
  Prozentsatz des Ansetzens von Samen bei freier Bestäubung: 98,4%
[1]
  pest or weed control at 1 %, 10000 g/ha: 99.7%
[4]; [6]
  Kornzahl der Ähre bei freier Bestäubung: 33,6
  Kornzahl der Ähre im Isolator: 0,0
  Prozentsatz des Ansetzens von Samen bei freier Bestäubung: 87,9%
[4]; [7]
  pest or weed control at 6000 g/ha: 100%
Diploidem Roggen Chulpan
  Kornzahl der Ähre bei freier Bestäubung: 48,2
  Kornzahl der Ähre im Isolator: 0,0
  Prozentsatz des Ansetzens von Samen bei freier Bestäubung: 96,2%
  pest or weed control at 10000 g/ha: 100%
[2]
  Kornzahl der Ähre bei freier Bestäubung: 42,8
  Kornzahl der Ähre im Isolator: 0,8
  Prozentsatz des Ansetzens von Samen bei freier Bestäubung: 94,9%
  pest or weed control at 6000 g/ha: 98.1%
[3]
  Kornzahl der Rispe bei freier Bestäubung: 160,3
  Kornzahl der Rispe im Isolator: 0,0
  Prozentsatz des Ansetzens von Samen bei freier Bestäubung: 65,5%
  pest or weed control at 6000 g/ha: 100%
